According to ChEMBL document CHEMBL1130298, “Class III antiarrhythmic activity in vivo by selective blockade of the slowly activating cardiac delayed rectifier potassium current IKs by (R)-2-(2,4-trifluoromethyl)-N-[2-oxo-5-phenyl-1-(2,2,2-trifluoroethyl)- 2, 3-dihydro-1H-benzo[e][1,4]diazepin-3-yl]acetamide” (J Med Chem, 1997):

What was measured:
[1] = Inhibition of Iks current in isolated guinea pig myocytes during a 1s voltage clamp step from -50 to +50 mV.; assay type: functional, cell-based; conditions: Cavia porcellus
[2] = biological target: Voltage-gated inwardly rectifying potassium channel KCNH2 (Homo sapiens, UniProt Q12809); assay: Inhibition of Ikr current in isolated guinea pig myocytes during a 0.5 s voltage clamp step from -50 to -10 mV.; assay type: functional, cell-based, Cavia porcellus; conditions: target entry is the homologue from another species
Sequence of Voltage-gated inwardly rectifying potassium channel KCNH2 (Q12809 whole entry): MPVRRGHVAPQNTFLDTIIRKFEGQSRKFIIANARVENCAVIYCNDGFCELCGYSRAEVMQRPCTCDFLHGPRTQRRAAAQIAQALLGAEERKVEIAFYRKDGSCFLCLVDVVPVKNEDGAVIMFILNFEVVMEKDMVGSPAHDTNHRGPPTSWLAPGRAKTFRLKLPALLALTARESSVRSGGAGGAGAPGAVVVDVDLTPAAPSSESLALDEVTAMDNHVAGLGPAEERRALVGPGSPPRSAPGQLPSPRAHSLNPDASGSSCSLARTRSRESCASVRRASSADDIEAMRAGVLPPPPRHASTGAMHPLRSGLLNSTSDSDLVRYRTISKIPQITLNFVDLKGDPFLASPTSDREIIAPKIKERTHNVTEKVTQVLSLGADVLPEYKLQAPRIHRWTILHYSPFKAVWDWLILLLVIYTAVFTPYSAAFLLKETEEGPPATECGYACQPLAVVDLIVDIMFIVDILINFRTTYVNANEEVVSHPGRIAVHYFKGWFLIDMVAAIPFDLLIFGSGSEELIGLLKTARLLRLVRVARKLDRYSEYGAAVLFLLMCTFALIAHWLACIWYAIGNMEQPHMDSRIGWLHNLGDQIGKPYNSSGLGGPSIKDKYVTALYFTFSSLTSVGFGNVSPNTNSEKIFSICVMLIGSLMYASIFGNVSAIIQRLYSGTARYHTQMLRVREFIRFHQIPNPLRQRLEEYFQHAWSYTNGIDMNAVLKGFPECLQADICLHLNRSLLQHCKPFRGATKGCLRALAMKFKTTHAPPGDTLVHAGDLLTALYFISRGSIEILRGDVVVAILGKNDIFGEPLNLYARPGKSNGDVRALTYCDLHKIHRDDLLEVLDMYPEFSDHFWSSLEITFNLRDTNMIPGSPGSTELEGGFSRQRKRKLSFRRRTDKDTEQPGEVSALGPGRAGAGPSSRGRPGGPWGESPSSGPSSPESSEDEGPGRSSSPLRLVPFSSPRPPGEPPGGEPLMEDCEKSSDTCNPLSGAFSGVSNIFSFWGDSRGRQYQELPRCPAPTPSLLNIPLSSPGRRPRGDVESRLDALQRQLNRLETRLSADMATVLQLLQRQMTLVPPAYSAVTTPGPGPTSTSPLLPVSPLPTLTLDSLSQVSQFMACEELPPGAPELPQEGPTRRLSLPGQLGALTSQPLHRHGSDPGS

[3] = biological target: T1, IKr current (KCNH2 potassium channel) (Homo sapiens, UniProt Q12809); assay: Inhibition of Ikr current in isolated guinea pig myocytes during a 0.5 s voltage clamp step from -50 to -10 mV at 1000 nM; assay type: functional, cell-based, Cavia porcellus; conditions: target entry is the homologue from another species
T1 sequence (Q12809 whole entry): as above

[4] = biological target: T1, IKr current (KCNH2 potassium channel); assay: Inhibition of Ikr current in isolated guinea pig myocytes during a 0.5 s voltage clamp step from -50 to -10 mV at 100 nM; assay type: functional, cell-based, Cavia porcellus; conditions: target entry is the homologue from another species

Row | Structure (SMILES) | IC50 [1] [nM] | inhibition at 1 µM [3] [%] | also measured
1 | O=C(Cc1ccc(Cl)cc1Cl)N[C@@H]1N=C(c2ccccc2)c2ccccc2N(CC(F)(F)F)C1=O | 9 | – | –
2 | CN1C(=O)[C@H](NC(=O)CCC2CCCCC2)N=C(c2ccccc2)c2ccccc21 | 10 | – | IC50 [2]: 1000 nM
3 | CN1C(=O)[C@H](NC(=O)c2ccccc2)N=C(c2ccccc2)c2ccccc21 | 600 | 23 | –
4 | CC(C)N1C(=O)[C@H](NC(=O)c2cc(Cl)cc(Cl)c2)N=C(c2ccccc2)c2ccccc21 | 6 | – | –
5 | CN1C(=O)[C@H](NC(=O)Cc2ccccc2)N=C(c2ccccc2)c2ccccc21 | 300 | 31 | –
6 | O=C(Cc1ccc(C(F)(F)F)cc1C(F)(F)F)N[C@@H]1N=C(c2ccccc2)c2ccccc2N(CC(F)(F)F)C1=O [L-768673] | 6 | – | –
7 | CN1C(=O)[C@H](NC(=O)Cc2ccc(C(F)(F)F)cc2C(F)(F)F)N=C(c2ccccc2)c2ccccc21 | 140 | – | –
8 | CN1C(=O)[C@H](NC(=O)CCc2ccc(Cl)cc2Cl)N=C(c2ccccc2)c2ccccc21 | – | 31 | –
9 | O=C(Cc1cc(Cl)cc(Cl)c1)N[C@@H]1N=C(c2ccccc2)c2ccccc2N(CC(F)(F)F)C1=O | 30 | – | IC50 [2]: 4000 nM
10 | CC(=O)Nc1ccc(CCC(=O)N[C@@H]2N=C(c3ccccc3)c3ccccc3N(C)C2=O)cc1 | > 10000 | – | –
11 | CC(C)N1C(=O)[C@H](NC(=O)CCC2CCCCC2)N=C(c2ccccc2)c2ccccc21 | 20 | – | –
12 | CN(C)CCN1C(=O)C(NC(=O)CCc2ccc(Cl)cc2Cl)N=C(c2ccccc2)c2ccccc21 (stereo not drawn) | – | – | IC50 [2]: 100 nM
13 | CC(C)N1C(=O)[C@H](NC(=O)Cc2cc(Cl)cc(Cl)c2)N=C(c2ccccc2)c2ccccc21 | 10 | – | –
14 | CN1C(=O)[C@H](NC(=O)CCc2ccccc2)N=C(c2ccccc2)c2ccccc21 | 200 | 32 | –
15 | O=C(Cc1ccc(C(F)(F)F)cc1C(F)(F)F)N[C@H]1N=C(c2ccccc2)c2ccccc2N(CC(F)(F)F)C1=O | – | 35 | –
16 | CC(C)N1C(=O)[C@@H](NC(=O)c2cc(Cl)cc(Cl)c2)N=C(c2ccccc2)c2ccccc21 | – | 6 | –
17 | CN1C(=O)[C@H](NC(=O)c2cc(Cl)cc(Cl)c2)N=C(c2ccccc2)c2ccccc21 | 45 | 17 | –
18 | Cc1cccc(NC(=O)N[C@@H]2N=C(c3ccccc3)c3ccccc3N(C)C2=O)c1 [L-365260] | 214 | – | –
19 | O=C(N[C@@H]1N=C(c2ccccc2)c2ccccc2N(CC(F)(F)F)C1=O)c1cc(Cl)cc(Cl)c1 | 11 | – | inhibition at 0.1 µM [4]: 25%
20 | CN1C(=O)[C@H](NC(=O)/C=C/c2ccc(Cl)cc2Cl)N=C(c2ccccc2)c2ccccc21 | 6 | – | –
21 | CN1C(=O)[C@H](NC(=O)C(N)Cc2ccccc2)N=C(c2ccccc2)c2ccccc21 (stereo partly drawn) | 2800 | – | –
